# Assay results: publication PMC8037814, “Polymorphic Characterization, Pharmacokinetics, and Anti-Inflammatory Activity of Ginsenoside Compound K Polymorphs” (Molecules, 2021)
# Values joined by “and” are separate entries in the source; they are usually repeats but may differ in a detail not shown here. Identical values can stand only once. Like-named read-outs stand apart in the source and are kept apart here.
# Columns and labels:
# [1] = Pharmacokinetics after oral administration of CK polymorphs in rats (20 mg/kg); type: in vivo, Sprague-Dawley rats; conditions: p.o. 20 mg/kg, individual rats 1-3
# Experimental: All samples were analyzed with a triple quadrupole LC-MS/MS (API 4000 LC-MS/MS, AB Sciex, Framingham, MA, USA) coupled with an Agilent 1200 HPLC system (Agilent Technologies, Palo Alto, CA, USA). The MS was equipped with an electrospray system (ESI). The N2 gas temperature and ion-spray voltage were set to 550 °C and 4.5 kV, respectively. CK was measured in multiple reaction monitoring (MRM) mode using a negative electrospray ionization source at m/z 667.4 → 621.2 for CK (CID 25.6 v) and m/z 271.2 → 228.8 for internal standard (IS, (E)-5-(4-fluorostyryl)-2-isopropylbenzene-1,3-diol, Welichem Biotech Inc., Wayburne Drive Burnaby, BC, Canada) (CID 28.3 v) with a dwell time of 0.1 s.
# Rats were divided randomly into 5 groups of six animals each (sex in half) and given 7 days to acclimatize to the facility before the experiments began. The four forms of CK were suspended in 0.5% sodium carboxymethyl cellulose (CMC-Na) solution and orally administered to rats at a dose of 20 mg/kg. A CK solution in a mixed solvent of dimethyl sulfoxide (DMSO)/castor oil/physiologic saline (3:5:92, v/v) was intravenously administered to the remaining group via the tail vein at a dose of 10 mg/kg. Blood samples were collected by retro-orbital puncture at the following times: 0.167, 0.333, 0.667, 1, 2, 3, 4, 6, 9, 12, and 24 h for the oral administration, and at 0.0083, 0.05, 0.133, 0.25, 0.5, 1, 2, 4, 6, and 9 h for the intravenous administration. Plasma samples were obtained by centrifuging a heparinized blood tube at 4000 rpm for 5 min and then stored at −70 °C until analysis.
# The procedure for drug extraction from plasma samples was as follows: 0.2 mL acetonitrile, 0.2 mL plasma sample, and 10 μL IS (1 µg/mL) were added into a 1.5 mL Eppendorf-type tube. This mixture was vortexed for 1 min and then treated with 0.8 mL of methyl tert-butyl ether (MTBE) to precipitate the plasma proteins. After a mechanical vortex for 1 min and subsequent centrifugation (4000 rpm, 5 min), 0.8 mL of the supernatant was transferred and blow-dried with N2 at 40 °C in a water bath. Finally, the residue was dissolved in 120 μL of mobile phase, and then 10 μL was subjected to HPLC for analysis. […] Intra- and inter-day precision and accuracy never exceeded 15% by analyzing six replicate samples.
# The CK pharmacokinetic parameters in rats, including the area under the curve (AUC(0–t) and AUC(0–∞)), mean residence time (MRT(0–t) and MRT(0–∞)), maximum concentration (Cmax), time to maximum concentration (Tmax), half-life (t1/2), apparent distribution volume (V), and total plasma clearance (CL), were derived from plasma concentration-time curves by using non-compartmental analysis (NCA) with DAS 2.0 software (Drug And Statistics, Mathematical Pharmacology Professional Committee of China, Shanghai, China). The absolute bioavailability (Fabs) was calculated from the dose-adjusted ratio of AUCp.o. to AUCi.v.. One-way analysis of variance (ANOVA) by SPSS 11.5 (SPSS Inc., Chicago, IL, USA) was conducted to compare the primary PK parameters.
# [2] = test system: carrageenan-induced acute paw inflammation; assay: Paw swelling test induced by carrageenan in rats; type: in vivo, Sprague-Dawley rats; set-up: paw volume: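 right hind paw volume measured with a plethysmometer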; conditions: for paw volume / paw edema: mean±SD of 6 rats; for edema inhibition: versus model group
# Experimental: Rats were divided into 11 groups of six animals each (sex in half): the normal group, the model group, indomethacin group (1 mg/kg), and form I, II, III, IV groups (each form set 10 mg/kg and 20 mg/kg groups, respectively). Indomethacin and CK were ground and suspended in 0.5% CMC-Na solution. […] The same volume of saline was injected into the normal group. […] Paw edema and inhibitory rate were calculated as the following formula, and the differences among groups were compared with the t-test. Paw edema (%) = (Vn − V0)/V0 × 100%. Vn: paw volume at different time intervals after carrageenan injection. V0: paw volume before carrageenan injection. Inhibitory rate (%) = (Em − Ee)/Em × 100%. Em: paw edema of the model group. Ee: paw edema of the experimental group.
# [3] = Pharmacokinetics after oral administration of CK polymorphs in rats (20 mg/kg); type: in vivo, Sprague-Dawley rats; conditions: for Fabs (absolute bioavailability): p.o. 20 mg/kg vs i.v. 10 mg/kg, dose-adjusted AUC ratio; for Tmax / t1/2z / AUC(0–t) / AUC(0–∞) / CLz/F / Cmax / Vz/F: 20 mg/kg
# [4] = DSC thermal analysis of CK polymorphs; type: physicochemical; conditions: 20 K/min from 20 to 400 °C, dry nitrogen flow
# Experimental: DSC measurements were performed on a DSC204 Phoenix calorimeter (NETZSCH, Selb, Germany) with a heating rate of 20 K/min from 20 to 400 °C. The dry nitrogen flow was about 50 mL/min. Data were analyzed using NETZSCH analysis software.
# [5] = 10 mg/kg p.o. qd 3 days, 3h after carrageenan, listed as From IV
# [6] = 10 mg/kg p.o. qd 3 days, 4h after carrageenan, listed as From IV
# [7] = 10 mg/kg p.o. qd 3 days, 5h after carrageenan, listed as From IV
# [8] = 10 mg/kg p.o. qd 3 days, 6h after carrageenan, listed as From IV
# [9] = 20 mg/kg p.o. qd 3 days, 3h after carrageenan, listed as From IV
# [10] = 20 mg/kg p.o. qd 3 days, 4h after carrageenan, listed as From IV
# [11] = 20 mg/kg p.o. qd 3 days, 5h after carrageenan, listed as From IV
# [12] = 20 mg/kg p.o. qd 3 days, 6h after carrageenan, listed as From IV
# [13] = female rats, p.o. 20 mg/kg, individual rats 1-3
# [14] = female rats, p.o. 20 mg/kg, mean ± SD (n = 3)
# [15] = male rats, p.o. 20 mg/kg, mean ± SD (n = 3)
# [16] = 1 mg/kg p.o. qd 3 days, 3h after carrageenan
# [17] = 1 mg/kg p.o. qd 3 days, 4h after carrageenan
# [18] = 1 mg/kg p.o. qd 3 days, 5h after carrageenan
# [19] = 1 mg/kg p.o. qd 3 days, 6h after carrageenan
compound,measurement,setting,value
"CC(C)=CCCC(C)(OC1OC(CO)C(O)C(O)C1O)C1CCC2(C)C1C(O)CC1C3(C)CCC(O)C(C)(C)C3CCC12C [Form IV, 20-O-β-D-glucopyranosyl-20(S)-protopanaxadiol]",AUC(0-t),[1]; female rats,1818.83 ng·h/mL and 1232.02 ng·h/mL and 885.16 ng·h/mL
same,AUC(0-∞),[1]; female rats,897.84 ng·h/mL and 1828.44 ng·h/mL and 1234.21 ng·h/mL
same,CLz/F,[1]; female rats,371.3 mL/min/kg and 182.3 mL/min/kg and 270.2 mL/min/kg
same,Cmax,[1]; female rats,122.10 ng/mL and 340.98 ng/mL and 193.16 ng/mL
same,Vz/F,[1]; female rats,116.76 L/kg and 47.28 L/kg and 56.79 L/kg
same,AUC(0-t),[1]; male rats,540.26 ng·h/mL and 711.78 ng·h/mL and 1023.81 ng·h/mL
same,AUC(0-∞),[1]; male rats,603.16 ng·h/mL and 720.70 ng·h/mL and 1028.47 ng·h/mL
same,CLz/F,[1]; male rats,552.7 mL/min/kg and 462.5 mL/min/kg and 324.2 mL/min/kg
same,Cmax,[1]; male rats,115.38 ng/mL and 116.79 ng/mL and 267.12 ng/mL
same,t1/2z,[1]; male rats,3.99 h and 3.07 h and 3.39 h
same,paw volume,"[2]; 10 mg/kg p.o. qd 3 days, 0h (before carrageenan), listed as From IV",1.60±0.05
same,paw edema,[2]; [5],63.73±8.98%
same,paw volume,[2]; [5],2.62±0.13
same,paw edema,[2]; [6],60.32±7.19%
same,paw volume,[2]; [6],2.57±0.10
same,paw edema,[2]; [7],40.95±1.48%
same,paw volume,[2]; [7],2.26±0.05
same,edema inhibition,[2]; [7],18.24%
same,paw edema,[2]; [8],30.95±10.46%
same,paw volume,[2]; [8],2.09±0.10
same,edema inhibition,[2]; [8],13.86%
same,paw volume,"[2]; 20 mg/kg p.o. qd 3 days, 0h (before carrageenan), listed as From IV",1.62±0.05
same,paw edema,[2]; [9],63.17±8.40%
same,paw volume,[2]; [9],2.64±0.16
same,paw edema,"[2]; 20 mg/kg p.o. qd 3 days, 4h after carrageenan",58.6 ± 3.6%
same,paw edema,[2]; [10],58.65±3.69%
same,paw volume,[2]; [10],2.57±0.09
same,paw edema,[2]; [11],39.21±10.18%
same,paw volume,[2]; [11],2.26±0.13
same,edema inhibition,[2]; [11],21.72%
same,paw edema,[2]; [12],31.27±12.96%
same,paw volume,[2]; [12],2.13±0.15
same,edema inhibition,[2]; [12],12.98%
same,"paw edema, difference from the model group",[2]; any time point post carrageenan injection,no statistical difference
same,Fabs (absolute bioavailability),[3]; female rats,4.07%
same,Tmax,[3]; [13],3.00 h
same,t1/2z,[3]; [13],3.63 h and 3.00 h and 2.43 h
same,AUC(0–t),[3]; [14],1312.0 ± 471.95 ng·h/mL
same,AUC(0–∞),[3]; [14],1320.17 ± 471.22 ng·h/mL and 1320.2 ± 471.22 ng·h/mL
same,CLz/F,[3]; [14],274.5 ± 94.5 mL/min/kg and 275 ± 94.5 mL/min/kg
same,Cmax,[3]; [14],218.75 ± 111.66 ng/mL and 218.8 ± 111.7 ng/mL
same,Tmax,[3]; [14],2.3 ± 0.58 h
same,Vz/F,[3]; [14],73.61 ± 37.67 L/kg and 73.6 ± 37.7 L/kg
same,t1/2z,[3]; [14],3.02 ± 0.60 h and 3.0 ± 0.60 h
same,Tmax,"[3]; female, Sprague-Dawley, rat, plasma, po, female rats, p.o. 20 mg/kg, mean ± SD (n = 3), read-out: Tmax",2.33 ± 0.58 h
same,Fabs (absolute bioavailability),[3]; male rats,2.59%
same,Vz/F,"[3]; male rats, p.o. 20 mg/kg, individual rats 1-3",162.18 L/kg and 159.92 L/kg and 86.19 L/kg
same,AUC(0–t),[3]; [15],758.62 ± 245.16 ng·h/mL
same,AUC(0–∞),[3]; [15],784.11 ± 219.63 ng·h/mL
same,CLz/F,[3]; [15],446.5 ± 115 mL/min/kg and 447 ± 115 mL/min/kg
same,Cmax,[3]; [15],166.43 ± 87.20 ng/mL and 166.4 ± 87.20 ng/mL
same,Vz/F,[3]; [15],136.10 ± 43.24 L/kg and 136 ± 43.2 L/kg
same,t1/2z,[3]; [15],3.48 ± 0.47 h and 3.5 ± 0.47 h
same,decrease in the bioavailability from form I to form IV,"[3]; rats, p.o. 20 mg/kg",34%
same,DSC onset of the decomposition endotherm (thermodynamical stability),[4],250.2 °C
"COc1ccc2c(c1)c(CC(=O)O)c(C)n2C(=O)c1ccc(Cl)cc1 [Indomethacin, indomethacin, reference compound]",paw volume,"[2]; 1 mg/kg p.o. qd 3 days, 0h (before carrageenan)",1.60±0.13
same,paw edema,[2]; [16],48.00±18.21%
same,paw volume,[2]; [16],2.35±0.15
same,edema inhibition,[2]; [16],25.32%
same,paw edema,[2]; [17],43.75±15.39%
same,paw volume,[2]; [17],2.28±0.12
same,edema inhibition,[2]; [17],29.85%
same,paw edema,[2]; [18],30.74±10.87%
same,paw volume,[2]; [18],2.08±0.15
same,edema inhibition,[2]; [18],40.61%
same,paw edema,[2]; [19],23.41±9.18%
same,paw volume,[2]; [19],1.97±0.12
same,edema inhibition,[2]; [19],40.46%
